According to PubChem BioAssay (NCI):
“And” between values parts separate entries of the source, which are not always exact repeats. Equal entries are not always repeated.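 Growth conditions: 96-well plates. Treatment: test compound, 48 hours, 5 concentrations. Analysis: linear interpolation between bracketing concentrations; unreached endpoints set to highest concentration. GI50 is the concentration that inhibits growth by half. TGI marks complete inhibition of growth.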

Assays:
Assay in all cases: NCI-60 cell line screen, 48 h
RXF 393 renal = test system: RXF 393 renal
DMS 114 small cell lung = test system: DMS 114 small cell lung
COLO 205 colon = test system: COLO 205 colon
UACC-62 melanoma = test system: UACC-62 melanoma
HCT-116 colon = test system: HCT-116 colon
SNB-75 CNS = test system: SNB-75 CNS
HT29 colon = test system: HT29 colon
KM12 colon = test system: KM12 colon
DU-145 prostate = test system: DU-145 prostate

N#C/C(=C1\OC(=N)C(c2ccc(Cl)cc2Cl)C1=O)c1ccc(Cl)cc1Cl (stereo unspecified) was tested, and the TGI (RXF 393 renal) was over 100 µM, the TGI (DMS 114 small cell lung) was over 100 µM and the TGI (COLO 205 colon) was over 100 µM. The TGI (UACC-62 melanoma) was over 100 µM, the TGI (HCT-116 colon) was over 100 µM and the TGI (SNB-75 CNS) was over 100 µM. It also gave a TGI (HT29 colon) of over 100 µM.

Molecule CC1CCC2(C)C(CC=C(C=O)C2(O)C=O)C12CO2 (stereo unspecified) has a TGI (RXF 393 renal) of 2.85 µM, a TGI (DMS 114 small cell lung) of 4.84 µM and a TGI (COLO 205 colon) of 4.29 µM. For the same molecule, the TGI (UACC-62 melanoma) was 4.02 µM, the TGI (HCT-116 colon) was 6.65 µM and the TGI (HT29 colon) was 8.03 µM. It also gave a TGI (KM12 colon) of 11.4 µM.

With C/C(=N\NC(=S)N1CCN(c2ccccn2)CC1)c1ncccn1 the GI50 (RXF 393 renal) was 1.05 µM, the TGI (RXF 393 renal) was 4.51 µM and 15.5 µM and the TGI (DMS 114 small cell lung) was 0.271 µM and 1.08 µM. The GI50 (COLO 205 colon) was under 0.0245 µM, the GI50 (UACC-62 melanoma) was 0.057 µM and the TGI (UACC-62 melanoma) was 0.58 µM and 4.19 µM. The GI50 (DU-145 prostate) was 3.17 µM, the TGI (DU-145 prostate) was 18.8 µM and the TGI (HCT-116 colon) was 5.05 µM and 14.7 µM. The GI50 (SNB-75 CNS) was 4.48 µM, the TGI (SNB-75 CNS) was 20.3 µM and the GI50 (HT29 colon) was under 0.0263 µM. The TGI (HT29 colon) was 7.55 µM and 14.9 µM, the GI50 (KM12 colon) was 0.153 µM and the TGI (KM12 colon) was 5.92 µM and 15.1 µM.

Molecule O=C(Cc1ccccc1)C(c1ccccc1)S(=O)(=O)c1ccccc1 (stereo unspecified) has a TGI (RXF 393 renal) of over 100 µM, a TGI (DMS 114 small cell lung) of over 100 µM and a TGI (COLO 205 colon) of over 100 µM. The TGI (UACC-62 melanoma) was over 100 µM, the TGI (HCT-116 colon) was over 100 µM and the TGI (SNB-75 CNS) was over 100 µM. The TGI (HT29 colon) was over 100 µM and the TGI (KM12 colon) was over 100 µM.

For CC(C)(C)c1cc(C(=O)O)c2c(c1)C(=O)OC2(c1ccccc1)c1ccccc1C(=O)O (stereo unspecified), the TGI (RXF 393 renal) was over 100 µM, the TGI (DMS 114 small cell lung) was over 100 µM and the TGI (COLO 205 colon) was over 100 µM. The TGI (UACC-62 melanoma) was over 100 µM, the GI50 (DU-145 prostate) was over 100 µM and the TGI (DU-145 prostate) was over 100 µM. It also gave a TGI (HCT-116 colon) of over 100 µM, a TGI (SNB-75 CNS) of over 100 µM and a TGI (HT29 colon) of over 100 µM. The TGI (KM12 colon) was over 100 µM.

In the case of O=C(CO)C1CC2C=CC1C2 (stereo unspecified), the TGI (RXF 393 renal) is reported as over 100 µM, the TGI (DMS 114 small cell lung) is reported as over 100 µM and the TGI (COLO 205 colon) is reported as over 100 µM. The TGI (UACC-62 melanoma) was over 100 µM, the TGI (HCT-116 colon) was over 100 µM and the TGI (SNB-75 CNS) was over 100 µM. The TGI (HT29 colon) was over 100 µM and the TGI (KM12 colon) was over 100 µM.

COc1c(CC=C(C)C)c(O)c(C(CC(C)C)c2c(O)c(CC=C(C)C)c(O)c(C(C)=O)c2O)c(O)c1C(C)=O (stereo unspecified) showed a TGI (RXF 393 renal) of 11.1 µM, a TGI (DMS 114 small cell lung) of 0.575 µM and a TGI (COLO 205 colon) of 4.7 µM. It also gave a TGI (UACC-62 melanoma) of 2.22 µM, a TGI (DU-145 prostate) of 16.5 µM and a TGI (HCT-116 colon) of 1.6 µM. For the same molecule, the TGI (SNB-75 CNS) was 8.32 µM, the TGI (HT29 colon) was 8.63 µM and the TGI (KM12 colon) was 5.05 µM.

In the case of c1ccc(CN2COc3c(ccc4c5c(ccc34)CN(Cc3ccccc3)CO5)C2)cc1, the TGI (RXF 393 renal) is reported as over 100 µM, the TGI (DMS 114 small cell lung) is reported as over 100 µM and the TGI (COLO 205 colon) is reported as over 100 µM. For the same molecule, the TGI (UACC-62 melanoma) was over 100 µM, the TGI (DU-145 prostate) was over 100 µM and the TGI (HCT-116 colon) was over 100 µM. The TGI (SNB-75 CNS) was over 100 µM, the TGI (HT29 colon) was over 100 µM and the TGI (KM12 colon) was over 100 µM.

With CC(=O)[CH-]C(C)=O.CC(=O)[CH-]C(C)=O.CC(=O)[CH-]C(C)=O.[Ga+3] the GI50 (RXF 393 renal) was over 100 µM, the TGI (RXF 393 renal) was over 100 µM and the GI50 (DMS 114 small cell lung) was over 100 µM. The TGI (DMS 114 small cell lung) was over 100 µM, the GI50 (COLO 205 colon) was over 100 µM and the TGI (COLO 205 colon) was over 100 µM. For the same molecule, the GI50 (UACC-62 melanoma) was over 100 µM, the TGI (UACC-62 melanoma) was over 100 µM and the GI50 (HCT-116 colon) was over 100 µM. It also gave a TGI (HCT-116 colon) of over 100 µM, a GI50 (SNB-75 CNS) of over 100 µM and a TGI (SNB-75 CNS) of over 100 µM. It also gave a GI50 (KM12 colon) of over 100 µM and a TGI (KM12 colon) of over 100 µM.

For CC(N)CC(=O)O (stereo unspecified), the TGI (RXF 393 renal) was over 5000 µM, the TGI (DMS 114 small cell lung) was over 5000 µM and the TGI (COLO 205 colon) was over 5000 µM. It also gave a TGI (UACC-62 melanoma) of over 5000 µM, a TGI (HCT-116 colon) of over 5000 µM and a TGI (SNB-75 CNS) of over 5000 µM. It also gave a TGI (HT29 colon) of over 5000 µM and a TGI (KM12 colon) of over 5000 µM.

In the case of COc1c(OC(C)C)cc2cc(O)c(C(=O)NC3Cc4ccc(c(Cl)n4)O[C@@H]4C=C5C#C/C(=C\C#CC6OC56C4OC4CC(C)(O)C(O)C(C)O4)C(OC4CC(O)C(N(C)C)C(C)O4)COC3=O)cc2c1OC (stereo partly specified), the GI50 (RXF 393 renal) is reported as 0.568 µg/mL, the TGI (RXF 393 renal) is reported as > 36.3 µM and 1.92 µg/mL and the GI50 (DMS 114 small cell lung) is reported as 0.926 µg/mL. For the same molecule, the TGI (DMS 114 small cell lung) was 10.4 µg/mL, the GI50 (COLO 205 colon) was > 36.3 µM and 0.345 µg/mL and the TGI (COLO 205 colon) was > 36.3 µM and 13.6 µg/mL. The GI50 (UACC-62 melanoma) was 4.33 µM and 0.511 µg/mL, the TGI (UACC-62 melanoma) was 21 µM and 7.44 µg/mL and the TGI (DU-145 prostate) was over 36.3 µM. It also gave a GI50 (HCT-116 colon) of 0.584 µg/mL, a TGI (HCT-116 colon) of 15.7 µg/mL and a GI50 (SNB-75 CNS) of 4.43 µg/mL. For the same molecule, the TGI (SNB-75 CNS) was > 36.3 µM and 19.1 µg/mL, the GI50 (HT29 colon) was > 36.3 µM and 0.714 µg/mL and the TGI (HT29 colon) was > 36.3 µM and 37.5 µg/mL. For the same molecule, the GI50 (KM12 colon) was > 36.3 µM and 10.1 µg/mL and the TGI (KM12 colon) was > 36.3 µM and 37.5 µg/mL.

In the case of O=c1[nH]c2ccccc2n1C1CCN(CCCC(c2ccc(F)cc2)c2ccc(F)cc2)CC1, the GI50 (RXF 393 renal) is reported as 1.17 µM and 1.93 µM, the TGI (RXF 393 renal) is reported as 2.44 µM and 5.8 µM and the TGI (DMS 114 small cell lung) is reported as 6.52 µM. The GI50 (COLO 205 colon) was 1.31 µM, the TGI (COLO 205 colon) was 2.58 µM and 3.31 µM and the GI50 (UACC-62 melanoma) was 1.38 µM and 9.92 µM. For the same molecule, the TGI (UACC-62 melanoma) was 2.75 µM and 23.5 µM, the GI50 (DU-145 prostate) was 1.73 µM and 13.7 µM and the TGI (DU-145 prostate) was 3.24 µM and 28.5 µM. The GI50 (HCT-116 colon) was 1.44 µM and 5.67 µM, the TGI (HCT-116 colon) was 3.14 µM and 17.8 µM and the TGI (SNB-75 CNS) was 25.6 µM. The GI50 (HT29 colon) was 1.12 µM, the TGI (HT29 colon) was 2.52 µM and 7.2 µM and the GI50 (KM12 colon) was 1.76 µM and 6.97 µM. The TGI (KM12 colon) was 3.4 µM and 22.1 µM.

Molecule O=C(c1c(O)cc(O)cc1O)C1Cc2ccccc21 (stereo unspecified) has a TGI (RXF 393 renal) of over 100 µM, a TGI (DMS 114 small cell lung) of over 100 µM and a TGI (COLO 205 colon) of over 100 µM. The TGI (UACC-62 melanoma) was over 100 µM, the TGI (HCT-116 colon) was over 100 µM and the TGI (SNB-75 CNS) was 60.9 µM. It also gave a TGI (HT29 colon) of over 100 µM and a TGI (KM12 colon) of over 100 µM.

Work on CCOC(=O)C(CCCNC(=O)OC(C)(C)C)N(Cc1ccc(OC)cc1OC)C(=O)CC(=O)CP(=O)(OCC)OCC (stereo unspecified) yielded a TGI (RXF 393 renal) of over 100 µM, a TGI (DMS 114 small cell lung) of over 100 µM and a TGI (COLO 205 colon) of over 100 µM. The TGI (UACC-62 melanoma) was over 100 µM, the TGI (HCT-116 colon) was over 100 µM and the TGI (SNB-75 CNS) was over 100 µM. The TGI (HT29 colon) was over 100 µM and the TGI (KM12 colon) was over 100 µM.

With C[P+]1(c2ccccc2)CCCCC1 the TGI (RXF 393 renal) was over 100 µM, the TGI (DMS 114 small cell lung) was over 100 µM and the TGI (COLO 205 colon) was over 100 µM. For the same molecule, the TGI (UACC-62 melanoma) was over 100 µM, the TGI (SNB-75 CNS) was over 100 µM and the TGI (HT29 colon) was over 100 µM. For the same molecule, the TGI (KM12 colon) was over 100 µM.
